Values quoted from earlier work in US12127968B2, “Methods and devices for controlled delivery” (Femasys Inc., priority 2018, dated 2024).
Counter-ions that a name gives are not always drawn.

Tested on: ovulation
Conditions: patients whose only factor is ovulatory dysfunction

## CCN(CC)CCOc1ccc(C(=C(Cl)c2ccccc2)c2ccccc2)cc1 [Clomiphene citrate]
  patients in whom normal ovulation is restored: about 80%
